Reference: the SangsterLogP compilation

experiment: method code SF-AS, from DOI: 10.1016/0045-6535(94)00381-4

Structure (SMILES) | logP
COC(=O)C1(S(=O)(=O)c2ccccc2)CCCC1 | 1.98
CC(C)OC(=O)C1(S(=O)(=O)c2ccc(Cl)cc2)CCCCCC1 | 3.83
COC(=O)C1(S(=O)(=O)c2ccccc2)CC1 | 1.43
CC(C)OC(=O)C1(S(=O)(=O)c2ccc([N+](=O)[O-])cc2)CCCCC1 | 2.84
CC(C)OC(=O)C1(S(=O)(=O)c2ccc([N+](=O)[O-])cc2)CCCCCC1 | 3.41
COC(=O)CS(=O)(=O)c1ccc(Cl)cc1 | 1.31
COC(=O)C1(S(=O)(=O)c2ccc([N+](=O)[O-])cc2)CC1 | 1.33
CC(C)(C)OC(=O)C1(S(=O)(=O)c2ccc(Cl)cc2)CC1 | 2.68
CC(C)OC(=O)C1(S(=O)(=O)c2ccc(Cl)cc2)CCCCC1 | 3.49
CC(C)OC(=O)C1(S(=O)(=O)c2ccc([N+](=O)[O-])cc2)CC1 | 2.05
CC(C)OC(=O)CS(=O)(=O)c1ccc(Cl)cc1 | 2.04
COC(=O)C1(S(=O)(=O)c2ccccc2)CCC1 | 1.63
COC(=O)C1(S(=O)(=O)c2ccccc2)CCCCC1 | 2.3
COC(=O)CS(=O)(=O)c1ccccc1 | 0.93
COC(=O)CS(=O)(=O)c1ccc([N+](=O)[O-])cc1Cl | 1.45
COC(=O)CS(=O)(=O)c1ccc(Br)cc1 | 1.52
CC(C)OC(=O)C1(S(=O)(=O)c2ccc(Cl)cc2)CC1 | 2.64

Now from value to molecule:

logP | Structure (SMILES)
2.52 | Cc1ccc(S(=O)(=O)C2(C(=O)OC(C)C)CC2)cc1
2.36 | CC(C)OC(=O)C1(S(=O)(=O)c2ccc([N+](=O)[O-])cc2)CCC1
2.32 | COC(=O)C1(S(=O)(=O)c2ccc(Br)cc2)CC1
2.94 | COC(=O)C1(S(=O)(=O)c2ccc(Br)cc2)CCCCC1
2.88 | Cc1ccc(S(=O)(=O)C2(C(=O)OC(C)C)CCCC2)cc1
1.77 | COC(=O)C1(S(=O)(=O)c2ccc(C)cc2)CC1
2.54 | COC(=O)C1(S(=O)(=O)c2ccc(C)cc2)CCCCC1
2.31 | CCOC(=O)C1(S(=O)(=O)c2ccc(C)cc2)CCC1
3.21 | Cc1ccc(S(=O)(=O)C2(C(=O)OC(C)C)CCCCC2)cc1
3.16 | CC(C)OC(=O)C1(S(=O)(=O)c2ccc(Cl)cc2)CCCC1
2.23 | CCOC(=O)C1(S(=O)(=O)c2ccc(C)cc2)CC1
2.45 | COC(=O)C1(S(=O)(=O)c2ccc(Br)cc2)CCC1
2.03 | COC(=O)C1(S(=O)(=O)c2ccc(Cl)cc2)CC1
2.73 | COC(=O)C1(S(=O)(=O)c2ccc(Br)cc2)CCCC1
2.28 | COC(=O)C1(S(=O)(=O)c2ccc(Cl)cc2)CCC1
